In patent publication US8313763B2, “Sustained delivery formulations of rapamycin compounds” (Tolmar Therapeutics, Inc., priority 2004, dated 2012):

Legend:
[1] = tested on: Human umbilical endothelial cells; test: VEGF-activated endothelial cell proliferation, [3H]-thymidine incorporation; assay type: cell-based; conditions: [3H]-thymidine incorporation after 48 hours
Procedure: (§1) Targeted tissue concentrations were estimated from in vitro experiments assessing the inhibitory effects of rapamycin on endothelial cell proliferation and cytokine release from immune cells. Human umbilical endothelial cells were activated with Vascular Endothelial Growth Factor (VEGF) and incubated with various concentrations of rapamycin. Cell proliferation was evaluated by quantifying [3}H-thymidine incorporation after 48 hours. […] The IC50 for the release of TNFalpha from Lipopolysaccharide and IFNgamma treated THP-1 cells (monocytic cell line) was ˜1 nM and the IC50 for the release of IFNgamma from human peripheral blood T cells stimulated with phytohemagglutanin was ˜2 nM.

[2] = tested on: choroidal neovascularization (CNV); test: Laser-induced CNV model, fluorescein angiography evaluation of leaky CNV; assay type: in vivo, Long Evans rats; conditions: for incidence of developing leaky CNV 2 weeks after laser photocoagulation: vehicle 83%
Procedure: (§2) Thermal laser infrared light (diode laser 810 nm) at 200 mW for 0.075 seconds was delivered to the fundus of Long Evans rats using a slit lamp and a slit lamp adaptor. A total of 6 lesions with 75 μm diameter were placed in a circular pattern surrounding the optic disc on the posterior pole.
(§3) Intravitreal injection was performed immediately after laser photocoagulation. Briefly, three days prior to the injection, 0.3% Ciloxan ointment was applied to the eye once daily. At the time of injection, the eye pocket was irrigated and the conjunctiva swabbed with 1.0% Betadine solution. A 30-gauge needle connected to a 10-μL Hamilton syringe that contained 5 μL carboxymethylcellulose (CMC)-based Rapamycin suspension (0.5, 5, 10 or 40 mg/mL) or CMC vehicle alone was inserted 1 mm posterior to the corneoscleral limbus. The injection began when the bevel of the needle faced down and reached the vitreous about 1-2 mm in depth with the visual aid of a dissecting microscope. After injection, topical 0.3% Ciloxan ointment was applied to the eye once daily for 2 days.
FA was performed on the 14th day after intravitreal injection of Rapamycin. Briefly, a 25-gauge butterfly catheter was placed in the tail vein on an anesthetized animal and a Heparin-Lock solution (0.50 mL of 10,000 IU/mL Heparin Sodium with 0.95 mL 0.9% Saline) was used to fill the catheter line to maintain intravenous access. A dose of 10 mg/kg of Diofluor 10% (Fluorescein Sodium 10%) was delivered through the tail vein, followed by a flush of sterile saline to ensure full delivery of Diofluor 10%. An infusion pump (Becton-Dickinson) connected to a 60 cc syringe was used to infuse the Diofluor 10% at a constant rate of 6 mL/min (8.4-13.2 pounds per square inches) to allow for consistency in the synchronization of the fluorescein bolus injection and the angiogram acquisition. Photographs were taken with a fluorescence fundus camera at 1-10, 30, 60, 90, 180, and 300 sec after Diofluor 10% administration. The leakiness of CNV was assessed by two independent readers masked to the treatment.

[3] = tested on: human peripheral blood T cells; test: IFNgamma release from phytohemagglutanin-stimulated T cells; assay type: cell-based; conditions: T-cell, T cells stimulated with phytohemagglutanin
Procedure: as §1

[4] = tested on: Ser235/236 phosphorylation of S6 ribosomal protein (downstream target of mTOR); test: Pharmacodynamic evaluation: S6 phosphorylation in chorioretinal tissues by western blot; assay type: in vivo, rat
Procedure: as §3
Upon euthanasia of the animal, the eyes were cut along the equator, separating the anterior and posterior segments. The vitreous was removed and the remaining back of eye (with intact retina, choroid and sclera) was placed in a labeled Nalgene Cryotube, immediately immersed in liquid nitrogen, and stored at −80° C. until ready to use. Upon lysis, tubes containing tissue were brought to room temperature to thaw. […] Protein concentration of each sample was determined using the Pierce BCA Protein Determination Kit (Pierce, CAT #: 23225) and BSA as a standard. Samples were analyzed by SDS-PAGE, followed by western blotting. […] Bound antibodies were detected using ECL or ECL plus Western Blotting Reagents. Densitometric evaluation was performed on blots scanned by Bio-Rad Multi-Analyst Software, and analyzed in MS Excel and GraphPad Prism.
Rapamycin inhibits mTOR activity, which then down-regulates Ser235/236 phosphorylation of the downstream target of mTOR, the S6 ribosomal protein. In order to evaluate the pharmacodynamic response of intravitreally administered rapamycin in the eye, the serine phosphorylation of S6 protein extracted from chorioretinal tissues was analyzed by western blot, and standardized by the total amount of S6 protein. […]

[5] = tested on: THP-1 cells (monocytic cell line); test: TNFalpha release from Lipopolysaccharide and IFNgamma treated THP-1 cells; assay type: cell-based; conditions: Homo sapiens
Procedure: as §1

[6] = tested on: choroidal neovascularization (CNV); test: Laser-induced CNV model, histological evaluation (CNV area, CD31-positive cell count); assay type: in vivo, Long Evans rats
Procedure: as §2
as §3, with “A 30-gauge needle connected to a 10-μL Hamilton syringe that contained 5 μL carboxymethylcellulose (CMC)-based Rapamycin suspension (0.5, 5, 10 or 40 mg/mL) or CMC vehicle alone was inserted 1 mm posterior to the corneoscleral limbus.” left out
Eyes were enucleated and chorioretinal tissues that contained the CNV lesions prepared and fixed for about 18 hours in formic acid alcohol, and then replaced with 70% alcohol until the specimen was processed to wax by a standard method. Slides were stained with mouse anti rat CD31 (Chemicon, UK) by a standard immunohistochemistry protocol. This briefly consisted of removal of endogenous peroxidase enzymes with methanol and hydrogen peroxide, primary antibody as above, and the secondary donkey antibody anti mouse conjugated to biotin. Streptavidin ABC and Vector VIP substrate (Vector labs, Burlingame Calif.) were further added. Haematoxylin was used as a counterstain. Representative images before and after the center of each CNV lesion were taken using the 20× objective of an Olympus BX61 microscope fitted with a Spot RT colour camera (Diagnostic instruments, MI USA). Each image was applied to the standard image analysis macro in the software Image pro to identify the mean of lesion area for each CNV and the mean of CD31 positive cell counts (i.e. endothelial cells) within the CNV lesion area. All measurements were generated by two independent readers masked to the treatments. The data was analyzed in Excel and GraphPad Prism. The 80% correlation found between readers was deemed acceptable.

Row | IC50 [3] [nM] | IC50 [5] [nM] | SMILES | IC50 [1] [nM] | response in the rat model of laser-induced CNV ([2]; 5 μg intravitreally injected) | incidence of developing leaky CNV 2 weeks after laser photocoagulation ([2]; single intravitreal injection of 0.5 μg rapamycin in CMC) [%] | incidence of developing leaky CNV 2 weeks after laser photocoagulation ([2]; single intravitreal injection of 5 μg rapamycin in CMC) [%] | incidence of developing leaky CNV 2 weeks after laser photocoagulation ([2]; single intravitreal injection of 50 μg rapamycin in CMC) [%] | level of phosphorylated Ser235/236 on S6 ribosomal protein, standardized by total S6 ([4]; chorioretinal tissues, day 1, 3 and 7 post-dosing, vs untreated or vehicle-injected eyes, FIG. 10) | onset of inhibitory effect on S6 phosphorylation ([4]; intravitreal, rat) [h] | duration of inhibitory effect on S6 phosphorylation ([4]; post-dosing, longest follow-up timepoint) [days] | reduction in CNV area compared to the vehicle group ([6]; 0.5 μg intravitreal) [%] | reduction in CNV area compared to the vehicle group ([6]; 5 μg intravitreal) [%] | reduction in CNV area compared to the vehicle group ([6]; 50 μg intravitreal) [%] | overall reduction in the number of endothelial cells within the CNV area compared to the vehicle group ([6]; 50 μg, 5 μg and 0.5 μg intravitreal, overall) | incidence of leaky CNV at the 14-day follow-up ([2]; intravitreal dose of 200 μg, positive control) [%] | inhibition of CNV area ([6]; TA, intravitreal 200 μg) | inhibition of endothelial cell count ([6]; TA, intravitreal 200 μg) [%]
1 | ~2 | ~1 | CO[C@H]1C[C@@H]2CC[C@@H](C)[C@@](O)(O2)C(=O)C(=O)N2CCCC[C@H]2C(=O)O[C@H]([C@H](C)C[C@@H]2CC[C@@H](O)[C@H](OC)C2)CC(=O)[C@H](C)/C=C(\C)[C@@H](O)[C@@H](OC)C(=O)[C@H](C)C[C@H](C)/C=C/C=C/C=C/1C [rapamycin, Rapamycin] | 69 | nearly a complete response | 65 | 5 | 2 | significantly reduced | ≤ 24 | 7 | 15 | 55 | 50 | 50-60% |  |  | 
2 |  |  | CC1(C)O[C@@H]2C[C@H]3[C@@H]4CCC5=CC(=O)C=C[C@]5(C)[C@@]4(F)[C@@H](O)C[C@]3(C)[C@]2(C(=O)CO)O1 [triamcinolone acetonide] |  |  |  |  |  |  |  |  |  |  |  |  | 10 | approximately 50% | ~60
